Results reported in patent publication US10919885B2, “Compounds and uses thereof” (Yumanity Therapeutics, Inc., priority 2018, dated 2021).
Counter-ions that a name gives are not always drawn.

Experiments:
human SCD1 = human SCD1 (Homo sapiens (Human), UniProt O00767); experiment: Yeast growth assay, strain expressing human SCD1 as the sole desaturase (reduced growth as surrogate for SCD inhibition); format: cell-based; conditions: yeast with OLE1 deleted expressing human SCD1 from a plasmid; growth read as OD600 after 40 h at 30° C.; top drug concentration 33.3 μM
Chain of human SCD1 (O00767 whole entry): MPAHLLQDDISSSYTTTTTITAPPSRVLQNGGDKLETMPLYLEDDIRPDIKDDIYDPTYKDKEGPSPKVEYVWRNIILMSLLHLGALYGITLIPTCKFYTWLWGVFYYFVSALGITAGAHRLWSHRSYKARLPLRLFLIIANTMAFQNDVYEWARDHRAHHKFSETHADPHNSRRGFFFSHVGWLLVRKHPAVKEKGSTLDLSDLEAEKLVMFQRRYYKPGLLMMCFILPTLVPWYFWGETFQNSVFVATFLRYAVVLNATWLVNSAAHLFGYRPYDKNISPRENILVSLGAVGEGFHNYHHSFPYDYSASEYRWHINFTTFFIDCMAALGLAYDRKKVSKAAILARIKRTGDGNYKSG
Outline: (§1)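 Yeast lacking OLE1 depend on plasmid-borne human SCD1 or SCD5 and are tested in SD-Ura medium without oleic/palmitoleic acid or Tween.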

human SCD5 = human SCD5 (Homo sapiens (Human), UniProt Q86SK9); experiment: Yeast growth assay, strain expressing human SCD5 as the sole desaturase (reduced growth as surrogate for SCD inhibition); format: cell-based; conditions: yeast with OLE1 deleted expressing human SCD5 from a plasmid; growth read as OD600 after 40 h at 30° C.; top drug concentration 33.3 μM
Chain of human SCD5 (Q86SK9 whole entry): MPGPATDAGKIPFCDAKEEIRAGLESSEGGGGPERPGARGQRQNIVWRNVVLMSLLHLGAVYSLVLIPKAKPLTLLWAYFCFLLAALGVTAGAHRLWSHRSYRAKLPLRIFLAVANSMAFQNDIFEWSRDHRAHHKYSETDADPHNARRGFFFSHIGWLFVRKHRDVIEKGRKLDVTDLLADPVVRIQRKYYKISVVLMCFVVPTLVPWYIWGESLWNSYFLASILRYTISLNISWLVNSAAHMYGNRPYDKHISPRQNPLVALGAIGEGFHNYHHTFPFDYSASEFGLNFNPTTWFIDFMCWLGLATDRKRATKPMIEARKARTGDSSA
Outline: as §1

COc1cccnc1C1CCCN1C(=O)c1cc(-c2ccc3c(c2)OCO3)on1 (stereo not drawn) [Compound 437]
IC50 (human SCD1): > 45 µM | IC50 (human SCD5): > 45 µM

O=C(c1cc(-c2ccc3c(c2)OCO3)on1)N1CCCC1c1ccccc1C(F)F (stereo not drawn) [Compound 331]
IC50 (human SCD1): > 45 µM | IC50 (human SCD5): 6.18 µM

O=C(c1noc2c1CCCC2)N1CC(Cc2ccccc2)C1 [Compound 253, 3-(3-benzylazetidine-1-carbonyl)-4,5,6,7-tetrahydro-1,2-benzoxazole]
IC50 (human SCD1): > 45 µM | IC50 (human SCD5): 13 µM

O=C(c1cc(-c2ccccc2)on1)N1CCCC1Cc1ccccc1 (stereo not drawn) [Compound 436]
IC50 (human SCD1): > 45 µM | IC50 (human SCD5): 8.9 µM

O=C(c1cc(-c2ccccc2)on1)N1CCN(c2cccc(F)c2)CC1 [Compound 294]
IC50 (human SCD1): 0.21 µM | IC50 (human SCD5): > 45 µM

COc1ccc(-c2cc(C(=O)N3CC(c4ccccc4)C3)no2)nc1 [Compound 242, (5-(5-methoxypyridin-2-yl)isoxazol-3-yl)(3-phenylazetidin-1-yl)methanone]
IC50 (human SCD1): 0.264 µM | IC50 (human SCD5): 0.305 µM

O=C(Nc1cc(-c2ccco2)on1)c1cnn(Cc2ccc(Cl)c(Cl)c2)c1 [Compound 59]
IC50 (human SCD1): > 45 µM | IC50 (human SCD5): > 45 µM

O=C(Nc1cnn(Cc2cccc(F)c2)c1)c1cc(-c2nncs2)on1 [Compound 174]
IC50 (human SCD1): 8.2 µM | IC50 (human SCD5): > 45 µM

O=C(c1cc(CC2CC2)on1)N1CCCC1c1ccccc1 (stereo not drawn) [Compound 384]
IC50 (human SCD1): 30 µM | IC50 (human SCD5): > 45 µM

O=C(c1cc(-c2ccncn2)on1)N1CC(c2ccccc2)C1 [Compound 257, (3-phenylazetidin-1-yl)(5-(pyrimidin-4-yl)isoxazol-3-yl)methanone]
IC50 (human SCD1): 0.321 µM | IC50 (human SCD5): 3.14 µM

O=C(c1cc(-c2ccc3c(c2)OCO3)on1)N1CCN(c2ccc(F)cc2)CC1 [Compound 279]
IC50 (human SCD1): > 45 µM | IC50 (human SCD5): > 45 µM

COc1cccc(N2CCN(C(=O)c3cc(-c4ccc5c(c4)OCO5)on3)CC2)c1 [Compound 271, (5-(benzo[d][1,3]dioxol-5-yl)isoxazol-3-yl)(4-(3-methoxyphenyl)piperazin-1-yl)methanone]
IC50 (human SCD1): > 45 µM | IC50 (human SCD5): 4.71 µM

O=C(c1cc(-c2ccccn2)on1)N1CC(c2ccccc2)C1 [Compound 233, (3-phenylazetidin-1-yl)(5-(pyridin-2-yl)isoxazol-3-yl)methanone]
IC50 (human SCD1): 2.61 µM | IC50 (human SCD5): 3.12 µM

O=C(c1cc(-c2cccnc2)on1)N1CCC(c2ccccc2)CC1 [Compound 315, (4-phenylpiperidin-1-yl)(5-(pyridin-3-yl)isoxazol-3-yl)methanone, trifluoroacetic acid salt]
IC50 (human SCD1): 3.84 µM | IC50 (human SCD5): 1.06 µM

O=C(Nc1cnn(Cc2cccc(F)c2)c1)c1cc(-c2ncccc2F)on1 [Compound 108, N-(1-(3-fluorobenzyl)-1H-pyrazol-4-yl)-5-(3-fluoropyridin-2-yl)isoxazole-3-carboxamide]
IC50 (human SCD1): 1.2 µM | IC50 (human SCD5): 1.8 µM

Cc1csc(-c2cc(C(=O)Nc3cnn(Cc4ccccc4)c3)no2)n1 [Compound 143]
IC50 (human SCD1): > 45 µM | IC50 (human SCD5): > 45 µM

CC(C)c1cc(C(=O)Nc2cc3ccccn3n2)no1 [Compound 176]
IC50 (human SCD1): > 45 µM | IC50 (human SCD5): > 45 µM

O=C(c1cc(-c2ccn3ncnc3c2)on1)N1CCC[C@H]1c1ccccc1 [Compound 432]
IC50 (human SCD1): 40 µM | IC50 (human SCD5): > 45 µM

O=C(NC1CCN(Cc2ccccc2)CC1)c1cc(-c2ccco2)on1 [Compound 285]
IC50 (human SCD1): > 45 µM | IC50 (human SCD5): > 45 µM

O=C(c1cc(-c2ccncc2)on1)N1CCC[C@H]1c1ccccc1 [Compound 409]
IC50 (human SCD1): 23 µM | IC50 (human SCD5): > 45 µM

O=C(c1cc(-c2ccc3c(c2)OCO3)on1)N1CCCc2c(F)cccc21 [Compound 263]
IC50 (human SCD1): > 45 µM | IC50 (human SCD5): > 45 µM

O=C(NC1CCN(c2ccccc2)CC1)c1cc(-c2ccco2)on1 [Compound 286]
IC50 (human SCD1): > 45 µM | IC50 (human SCD5): > 45 µM

O=C(Nc1cnn(Cc2cc(F)ccc2C(F)(F)F)c1)c1cc(-c2ccccc2)on1 [Compound 74]
IC50 (human SCD1): > 45 µM | IC50 (human SCD5): > 45 µM

Cc1nn(C)c2cc(-c3cc(C(=O)N4CCCC4c4cccnn4)no3)ccc12 (stereo not drawn) [Compound 462]
IC50 (human SCD1): > 45 µM | IC50 (human SCD5): > 45 µM

N#Cc1ccc(CN(C(=O)c2cc(-c3ccccc3)on2)c2cnn(Cc3ccc(C#N)cc3)c2)cc1 [Compound 47]
IC50 (human SCD1): > 45 µM | IC50 (human SCD5): > 45 µM

O=C(Nc1cnn(Cc2ccc(F)c(F)c2)c1)c1cc(-c2ccccn2)on1 [Compound 61]
IC50 (human SCD1): 25.5 µM | IC50 (human SCD5): > 45 µM

Cn1cc2ccc(-c3cc(C(=O)N4CC(c5ccccc5)C4)no3)cc2n1 [Compound 235, (5-(2-methyl-2H-indazol-6-yl)isoxazol-3-yl)(3-phenylazetidin-1-yl)methanone]
IC50 (human SCD1): > 45 µM | IC50 (human SCD5): 5.16 µM

CC(C)(C)OC(=O)n1cc(NC(=O)c2cc(-c3ccco3)on2)cn1 [Compound 12]
IC50 (human SCD1): > 45 µM | IC50 (human SCD5): > 45 µM

O=C(Nc1cnn(Cc2ccccc2)c1)c1cc(-c2ccccc2F)no1 [Compound 130]
IC50 (human SCD1): > 45 µM | IC50 (human SCD5): > 45 µM

O=C(c1cc(-c2ccccc2)on1)N1CCC(c2cccnc2)CC1 [Compound 322]
IC50 (human SCD1): > 45 µM | IC50 (human SCD5): > 45 µM

CSCC(c1ccccc1)n1cc(NC(=O)c2cc(-c3ccccc3)on2)cn1 (stereo not drawn) [Compound 73]
IC50 (human SCD1): > 45 µM | IC50 (human SCD5): > 45 µM

CC(C)(C)OC(=O)n1cc(NC(=O)c2cc(-c3ccccc3)on2)cn1 [Compound 35]
IC50 (human SCD1): 3.24 µM | IC50 (human SCD5): > 45 µM

NC(=O)c1cc(C(=O)Nc2cnn(Cc3cccc(F)c3)c2)no1 [Compound 162]
IC50 (human SCD1): > 45 µM | IC50 (human SCD5): > 45 µM

O=C(Nc1cnn(Cc2cnccc2C(F)(F)F)c1)c1cc(-c2ccncc2)on1 [Compound 202]
IC50 (human SCD1): > 45 µM | IC50 (human SCD5): > 45 µM

O=C(Nc1cnn(-c2ccccc2)c1)c1cc(-c2ccco2)on1 [Compound 33]
IC50 (human SCD1): > 45 µM | IC50 (human SCD5): > 45 µM

N#Cc1cc(C(=O)Nc2cnn(Cc3cccc(F)c3)c2)no1 [Compound 169]
IC50 (human SCD1): > 45 µM | IC50 (human SCD5): > 45 µM

Cc1ncc(-c2cc(C(=O)Nc3cnn(Cc4ccccc4)c3)no2)s1 [Compound 133]
IC50 (human SCD1): > 45 µM | IC50 (human SCD5): > 45 µM

C=Cc1cc(C(=O)Nc2cnn(Cc3cccc(F)c3)c2)no1 [Compound 106, N-(1-(3-fluorobenzyl)-1H-pyrazol-4-yl)-5-vinylisoxazole-3-carboxamide]
IC50 (human SCD1): 0.048 µM | IC50 (human SCD5): 1.9 µM

N#Cc1ccccc1-c1cc(C(=O)Nc2cnn(Cc3cccc(F)c3)c2)no1 [Compound 103]
IC50 (human SCD1): > 45 µM | IC50 (human SCD5): > 45 µM

O=C(c1cc(-c2cccnc2)on1)N1CCC[C@H]1c1ccccc1 [Compound 405]
IC50 (human SCD1): 33.3 µM | IC50 (human SCD5): > 45 µM

O=C(c1cc(-c2ccc3c(c2)OCO3)on1)N1CCCC1c1ncccn1 (stereo not drawn) [Compound 431]
IC50 (human SCD1): > 45 µM | IC50 (human SCD5): > 45 µM

O=C(c1cc(-c2ccc3c(c2)OCO3)on1)N1CCCC1c1ccc(F)cn1 (stereo not drawn) [Compound 272]
IC50 (human SCD1): > 45 µM | IC50 (human SCD5): > 45 µM

O=C(c1ccccc1)N1CCN(C(=O)c2cc(-c3ccc4c(c3)OCO4)on2)CC1 [Compound 281]
IC50 (human SCD1): > 45 µM | IC50 (human SCD5): > 45 µM

CCOC(=O)c1cc(C(=O)Nc2cnn(Cc3ccccc3)c2)on1 [Compound 151]
IC50 (human SCD1): > 45 µM | IC50 (human SCD5): > 45 µM

N#Cc1ccc(Cn2cc(NC(=O)c3cc(-c4ccccc4)on3)cn2)s1 [Compound 43]
IC50 (human SCD1): > 45 µM | IC50 (human SCD5): > 45 µM

O=C(c1cc(-c2ccc3c(c2)OCO3)on1)N1CCC(c2ccncc2)CC1 [Compound 293]
IC50 (human SCD1): > 45 µM | IC50 (human SCD5): > 45 µM

O=C(Nc1ccnc(Oc2ccccc2)c1)c1cc(-c2ccccc2)on1 [Compound 312]
IC50 (human SCD1): > 45 µM | IC50 (human SCD5): > 45 µM

O=C(NC1CCNC1)c1cc(-c2ccco2)on1 (stereo not drawn) [Compound 336]
IC50 (human SCD1): > 45 µM | IC50 (human SCD5): > 45 µM

O=C(Nc1cnn(Cc2cccc(F)c2)c1)c1cc(-c2ccns2)on1 [Compound 81, N-(1-(3-fluorobenzyl)-1H-pyrazol-4-yl)-5-(isothiazol-5-yl)isoxazole-3-carboxamide]
IC50 (human SCD1): 0.232 µM | IC50 (human SCD5): 1.6 µM

N#Cc1cccc(-c2cc(C(=O)N3CCC(c4ccccc4)CC3)no2)c1 [Compound 317]
IC50 (human SCD1): > 45 µM | IC50 (human SCD5): > 45 µM

O=C(c1cc(-c2ccc3c(c2)OCO3)on1)N1CCc2ccccc2C1 [Compound 260]
IC50 (human SCD1): > 45 µM | IC50 (human SCD5): > 45 µM

O=C(c1cc(-c2ccccc2)on1)N1CCN(c2cc(F)ccc2Cl)CC1 [Compound 297, (4-(2-chloro-5-fluorophenyl)piperazin-1-yl)(5-phenylisoxazol-3-yl)methanone]
IC50 (human SCD1): 19 µM | IC50 (human SCD5): 5.58 µM

CN(Cc1cccc(F)c1)C(=O)c1cc(-c2ccccc2)on1 [Compound 9]
IC50 (human SCD1): > 45 µM | IC50 (human SCD5): 15.7 µM

O=C(NC1CN(C(=O)c2cc(-c3ccccc3)on2)C1)c1ccccc1 [Compound 240]
IC50 (human SCD1): > 45 µM | IC50 (human SCD5): > 45 µM

C#Cc1cc(C(=O)Nc2cnn(Cc3cccc(F)c3)c2)no1 [Compound 154, 5-ethynyl-N-(1-(3-fluorobenzyl)-1H-pyrazol-4-yl)isoxazole-3-carboxamide]
IC50 (human SCD1): 1.6 µM | IC50 (human SCD5): 5.2 µM

O=C(c1cc(-c2ccc3c(c2)OCO3)on1)N1C[C@H](O)C[C@H]1c1ccccc1 [Compound 422]
IC50 (human SCD1): > 45 µM | IC50 (human SCD5): > 45 µM

O=C(c1cc(-c2ccc3c(c2)OCO3)on1)N1CC2(C1)CC(O)(c1ccccc1)C2 [Compound 224]
IC50 (human SCD1): > 45 µM | IC50 (human SCD5): 0.95 µM

O=C(c1cc(-c2ccccc2)on1)N1CCC(c2ccc(F)cc2)C1 (stereo not drawn) [Compound 334]
IC50 (human SCD1): > 45 µM | IC50 (human SCD5): > 45 µM

Cc1nn(C)c2cc(-c3cc(C(=O)N4CCN(c5ccccc5)CC4)no3)ccc12 [Compound 278]
IC50 (human SCD1): > 45 µM | IC50 (human SCD5): > 45 µM

O=C(c1cc(-c2ccc3c(c2)OCO3)on1)N1CCCC1c1cnccn1 (stereo not drawn) [Compound 418]
IC50 (human SCD1): > 45 µM | IC50 (human SCD5): > 45 µM
